We go through 45 sequences from patent US20060079453A1, “Hla binding peptides and their uses” (priority 2002, published 2006).

Among the targets are HLA-A*6801 (Homo sapiens, UniProt P04439, A269V/D185E/E176V/E277Q/E87N/F33Y/G231S/I121M/I166T/I218V/L180W/L300P/L318F/N151K/P208A/P217A/Q86R/R169H/T345S); HLA-A*3101 (Homo sapiens, UniProt P04439, A270S/D185E/E176V/E277Q/F33T/G231S/G80R/H175R/I121M/I218V/I322F/K168Q/L300P/L318F/M331R/P217A/Q94H/R138Q/T323A/T345S/T97I/V358M); HLA-A*0301 (Homo sapiens, UniProt P04439); HLA-A*3301 (Homo sapiens, UniProt P04439, A270S/D185E/E176V/E277Q/E87N/F33T/G231S/H175R/I121M/I218V/I322F/K168Q/K210R/L300P/L318F/M331R/P217A/Q86R/Q94H/R138Q/T323A/T345S/T97I/V358M/Y195H); HLA-A*1101 (Homo sapiens, UniProt P04439, A114D/D185E/E176A/F33Y/L180Q/S129P/T187R).

Holding throughout (experiment): biochemical
Holding throughout (type): binding

Usually IC50 stands for the concentration needed to halve the response being measured. A lower IC50 goes with greater potency in that assay.

No end group written: not given here.

NTLEQTVKR: the IC50 on HLA-A*6801 turned out to be 8.6 nM; on HLA-A*3101, 2270 nM; at HLA-A*0301 it was 20400 nM; against HLA-A*3301, 18 nM; on HLA-A*1101, 1150 nM.
On to RLYSKVSEFR, for which the IC50 against HLA-A*6801 was determined as 73 nM; on HLA-A*3101, 24 nM; at HLA-A*0301, 6.4 nM; on HLA-A*3301, 690 nM; against HLA-A*1101 it was 131 nM.
With KTLGISYGR, the IC50 against HLA-A*6801 was 36 nM; against HLA-A*3101, 21 nM; at HLA-A*0301, 53 nM; at HLA-A*3301, 502 nM; against HLA-A*1101, 9.8 nM.
Taken in the same sequence, the figures for DTIPHAACHK were 23 nM, 1760 nM, 2370 nM, 9.3 nM and 701 nM.
For ALERLLSLK, in that order: 13700 nM, 3430 nM, 233 nM, 12800 nM and 369 nM.
On to LLFYSKVRKYR, for which the half-maximal inhibitory concentration (IC50) at HLA-A*6801 was 15 nM; against HLA-A*3101, 7 nM; at HLA-A*0301, 28 nM; at HLA-A*3301, 11 nM; at HLA-A*1101 it was 94 nM.
For ALQAAAAAK, in that order: > 80000 nM, 52000 nM, 57 nM, > 72500 nM and 65 nM.
As to NSVYGETLER, the half-maximal inhibitory concentration (IC50) came out at 18 nM at HLA-A*6801; 163 nM against HLA-A*3101; 150 nM against HLA-A*0301; 1330 nM against HLA-A*3301; 25 nM against HLA-A*1101.
For PVLTSLFNK, in that order: 29900 nM, 5110 nM, 1950 nM, 18300 nM and 25 nM.
Taken in the same sequence, the figures for KISEYRHYNR were 1580 nM, 17 nM, 58 nM, 161 nM and 140 nM.
Take KVGPGGYPRR: the IC50 against HLA-A*6801 turned out to be 721 nM; against HLA-A*3101, 250 nM; at HLA-A*0301, 2270 nM; against HLA-A*3301, 7900 nM; against HLA-A*1101, 487 nM.
Regarding VSHAQLPAK, the half-maximal inhibitory concentration (IC50) against HLA-A*6801 stood at 13500 nM; on HLA-A*3101, 46 nM; against HLA-A*0301 it was 378 nM; against HLA-A*3301 it was 1400 nM; at HLA-A*1101, 9.5 nM.
Taken in the same sequence, the figures for GVSGPGPGK were 209 nM, > 11200 nM, 13 nM, > 112000 nM and 5.8 nM.
Taken in the same sequence, the figures for KTLGISYGRK were 1630 nM, 841 nM, 36 nM, 42400 nM and 79 nM.
For the sequence QQNQESKIMK, the IC50 against HLA-A*6801 was 21300 nM; on HLA-A*3101, 28100 nM; on HLA-A*0301, 3470 nM; at HLA-A*3301 it was > 17400 nM; against HLA-A*1101, 77 nM.
With QMMNVNLQK, the IC50 at HLA-A*6801 stood at 243 nM; against HLA-A*3101, 504 nM; against HLA-A*0301, 20 nM; on HLA-A*3301 it was 6650 nM; on HLA-A*1101, 7 nM.
For KQRFHNIRGK, in that order: 22900 nM, 573 nM, 55 nM, 35200 nM and 1950 nM.
As for TVQPGPGPGK, the half-inhibitory concentration (IC50) against HLA-A*6801 was determined as 28 nM; against HLA-A*3101 it was 1340 nM; at HLA-A*0301, 41 nM; at HLA-A*3301, 68600 nM; against HLA-A*1101, 2.5 nM.
With KQENWYSLKK, the IC50 was 4790 nM against HLA-A*6801; 6330 nM on HLA-A*3101; 608 nM on HLA-A*0301; > 136000 nM on HLA-A*3301; 178 nM against HLA-A*1101.
With ETVRHFPR, the IC50 against HLA-A*6801 is 86 nM; at HLA-A*3101, 1000 nM; against HLA-A*0301, > 13500 nM; against HLA-A*3301, 81 nM; against HLA-A*1101 it was 4180 nM.
Take EVLEIPLIDLR: the IC50 against HLA-A*6801 was 27 nM; against HLA-A*3101 it was 36400 nM; against HLA-A*0301 it was > 47000 nM; on HLA-A*3301 it was 72 nM; against HLA-A*1101 it was 16600 nM.
Take LTFYSKVRK: the concentration for half-maximal inhibition (IC50) against HLA-A*6801 came to 13 nM; on HLA-A*3101, 87 nM; against HLA-A*0301, 3.8 nM; against HLA-A*3301, 3380 nM; at HLA-A*1101 it was 8 nM.
In the case of AVKDLCIVYR, the IC50 was determined as 6.5 nM at HLA-A*6801; 7.3 nM against HLA-A*3101; 841 nM against HLA-A*0301; 8 nM against HLA-A*3301; 66 nM against HLA-A*1101.
Taken in the same sequence, the figures for AVKDLFVVYR were 3.3 nM, 3.1 nM, 1730 nM, 9.1 nM and 91 nM.
On to KVGSLQYLK, for which the IC50 is 4200 nM against HLA-A*6801; 2100 nM against HLA-A*3101; 482 nM at HLA-A*0301; > 43700 nM on HLA-A*3301; 70 nM against HLA-A*1101.
SFYGTTLEK: the half-inhibitory concentration (IC50) amounted to 498 nM against HLA-A*6801; 517 nM on HLA-A*3101; 34 nM against HLA-A*0301; 3380 nM at HLA-A*3301; 15 nM on HLA-A*1101.
Take AFCWRPRRR: the IC50 against HLA-A*6801 came to 1090 nM; against HLA-A*3101 it was 60 nM; at HLA-A*0301, 273 nM; against HLA-A*3301 it was 75 nM; on HLA-A*1101, 17900 nM.
Turning to FISFYLINK, the half-inhibitory concentration (IC50) on HLA-A*6801 was found to be 18 nM; at HLA-A*3101, 2190 nM; at HLA-A*0301, 19 nM; against HLA-A*3301, 1460 nM; at HLA-A*1101, 9 nM.
Taken in the same sequence, the figures for VTIRVGGQLK were 28 nM, 3590 nM, 43 nM, 86100 nM and 13 nM.
Consider VSIRVGGQTK, for which the IC50 was determined as 290 nM against HLA-A*6801; 29900 nM on HLA-A*3101; 341 nM against HLA-A*0301; 39000 nM at HLA-A*3301; 21 nM against HLA-A*1101.
On to LVFSNVLCFR, for which the 50% inhibitory concentration (IC50) at HLA-A*6801 is 7.7 nM; against HLA-A*3101 it was 33 nM; on HLA-A*0301, 120 nM; against HLA-A*3301 it was 19 nM; at HLA-A*1101, 19 nM.
As for SSFDIKSEVK, the IC50 against HLA-A*6801 stood at 31 nM; on HLA-A*3101 it was 19800 nM; against HLA-A*0301, 1900 nM; on HLA-A*3301, 70300 nM; against HLA-A*1101 it was 19 nM.
Taken in the same sequence, the figures for SLGPGPGTK were 3520 nM, 4390 nM, 7.8 nM, 152000 nM and 5.8 nM.
Taken in the same sequence, the figures for VTIKIEGQLK were 27 nM, 5080 nM, 361 nM, 58000 nM and 69 nM.
Take FVVYRDSIPK: the IC50 is 30 nM against HLA-A*6801; 6220 nM against HLA-A*3101; 265 nM against HLA-A*0301; 146 nM against HLA-A*3301; 81 nM at HLA-A*1101.
For TSVHEIELR, in that order: 12 nM, 1040 nM, > 64300 nM, 5950 nM and 872 nM.
For LVTDLRIVYR, in that order: 6.8 nM, 20 nM, 3870 nM, 150 nM and 648 nM.
Consider STLPGPGPGRR, for which the IC50 on HLA-A*6801 was 25 nM; at HLA-A*3101 it was 61 nM; on HLA-A*0301, 297 nM; against HLA-A*3301 it was 1890 nM; against HLA-A*1101, 19 nM.
For YLFNQHIKK, in that order: 14 nM, 4920 nM, 14 nM, 7970 nM and 7.8 nM.
For AVIFTPIYY, in that order: 1350 nM, 42300 nM, 25 nM, 10100 nM and 9.5 nM.
For VTLDIQSTK, in that order: 237 nM, 2050 nM, 78 nM, 1950 nM and 13 nM.
Turning to TFLEKLTNK, the IC50 against HLA-A*6801 came to 918 nM; on HLA-A*3101, 451 nM; on HLA-A*0301 it was 6840 nM; against HLA-A*3301, 148 nM; at HLA-A*1101 it was 815 nM.
For RVHSIAGQYR, in that order: 28 nM, 7.6 nM, 31 nM, 812 nM and 34 nM.
For LTISYGRK, in that order: 482 nM, 27100 nM, 988 nM, 38200 nM and 708 nM.
Regarding DTVYGDTLEK, the IC50 against HLA-A*6801 is 31 nM; at HLA-A*3101, 28800 nM; against HLA-A*0301, 50 nM; against HLA-A*3301 it was 55100 nM; against HLA-A*1101, 15 nM.
